Assay results as given in patent US5670527A, “Pyridyl imidazole compounds and compositions” (SmithKline Beecham Corporation, priority 1995, dated 1997).

These molecules were tested on human PGHS-2 protein expression in LPS stimulated human monocytes (assay: Prostoglandin endoperoxide synthase-2 (PGHS-2) assay). Settings: rank order potency similar to that for inhibiting cytokine production.
Assay type: cell-based
Description: The followiong assay describes a method for determining the inhibitory effects of compounds of Formula (I) on human PGHS-2 protein expression in LPS stimulated human monocytes
Human peripheal blood monocytes were isolated from buffy coats by centrifugation through Ficoll and Percoll gradients. Cells were seeded at 2×10^6 /well in 24 well plates and allowed to adhere for 1 hour in RPMI supplemented with 1% human AB serum, 20 mM L-glutamine, Penicillin-Streptomycin and 10 mM HEPES. Compounds were added at various concentrations and incubated at 37° C. for 10 minutes. LPS was added at 50 ng/well (to induce enzyme expression) and incubated overnight at 37° C. The supernatant was removed and cells washed once in cold PBS. The cells were lysed in 100 μl of cold lysis buffer(50 mM Tris/HCl pH 7.5, 150 mM NaCl, 1% NP40, 0.5% sodium deoxycholate, 0.1% SDS, 300 ug/ml DNAse, 0.1% TRITON X-100, 1 mM PMSF, 1 mM leupeptin, 1 mM pepstatin). The lysate was centrifuged (10;000×g for 10 min. at 4° C.) to remove debris and the soluble fraction was subjected to SDS PAGE. analysis (12% gel). Protein separated on the gel were transferred onto nitrocellulose membrane by electrophoretic means for 2 hours at 60 volts. The membrane was pretreated for one hour in PBS/0.1% Tween 20 with 5% non-fat dry milk. After washing 3 times in PBS/Tween buffer, the membrane was incubated with a 1:2000 dilution of a monospecific antiserum to PGHS-2 or a 1:1000 dilution of an antiserum to PGHs-1 in PBS/Tween with 1% BSA for one hour with continuous shaking. […] The membrane was then washed 3× in PBS/Tween and the ECL immunodetection system (Amersham) was used to detect the level of expression of prostaglandin endoperoxide synthases-2.

Row | SMILES | inhibition of LPS induced PGHS-2 protein expression
1 | Fc1ccc(-c2nc3n(c2-c2ccncc2)CCS3)cc1 [6-(4-Fluorophenyl)-2,3-dihydro-5-(4-pyridinyl)imidazo [2,1-b]thiazole] | active
2 | C[C@@H]1C[C@H]2[C@@H]3CCC4=CC(=O)C=C[C@]4(C)[C@@]3(F)[C@@H](O)C[C@]2(C)[C@@]1(O)C(=O)CO [Dexamethasone] | active
3 | Fc1ccc(-c2ncn(CCCN3CCOCC3)c2-c2ccncc2)cc1 [Example 1, 1-[3-(4-Morpholinyl)propyl]-4-(4-fluorophenyl)-5-(4-pyridyl)imidazole] | active

Same assay, conditions: up to 10 uM

Row | SMILES | inhibition of LPS induced PGHS-2 protein expression
4 | O=C1CCN(c2ccccc2)N1 [phenidone] | inactive
5 | C[S+]([O-])c1ccc(-c2nc3n(c2-c2ccncc2)CCC3)cc1 (stereo not shown) [2-(4-Methylsulfinylphenyl)-3-(4-pyridyl)-6-7-dihydro-(5H)-pyrrolo[1,2-a]imidazole] | inactive
6 | CC(Cc1ccc(O)c(O)c1)C(C)Cc1ccc(O)c(O)c1 (stereo not shown) [NDGA] | inactive
7 | COc1ccc(C2CNC(=O)C2)cc1OC1CCCC1 (stereo not shown) [rolipram] | inactive
